The numbers were not newly measured in patent US20230087473A1, “COMPOSITION OF SUSPOEMULSION FORMULATION OF ANTHELMINTIC DRUGS WITH ESSENTIAL OILS FOR NASO-PULMONARY ADMINISTRATION” (priority 2021, published 2023), which cites them from elsewhere.

For one data set, the system named is Musca Domenstica. To be noted: nasal irrigation with ivermectin solution, within 15 minutes.
The next data set relates to SARS-COV-2. To be noted: in-vitro study.
For data set [1] the following is noted: in vivo.

Turning to Ivermectin, in the data set on Musca Domenstica, the “larvae self-expulsed by the patient” value is “approximately 50 larvae”. For the same compound, the “effect on replication of SARS-COV-2” value with SARS-COV-2 is on record as “inhibitory role”.
With `O=C(Nc1ccc([N+](=O)[O-])cc1Cl)c1cc(Cl)ccc1O` [Niclosamide], the bioavailability entry in data set [1] was “very low bioavailability”.
